Assay results published in article PMC12527922, “Cocaine chemogenetics blunts drug-seeking by synthetic physiology” (Nature, 2025).
Read-outs that look alike come from different tables or passages of the source.

How the values were obtained:
[1] = estimated from self-administration; cited from earlier work
[2] = tested on: [^18F]fallypride binding at D2/D3 receptors (extracellular dopamine); assay: [^18F]fallypride PET, rats with coca-5HT3 in the LHb and controls; type: in vivo, rat
Method: Male Sprague–Dawley rats were anaesthetized with isoflurane (1.5-2%) and then placed onto a stereotaxic frame (Kopf) and injected with AAV5-Syn::coca-5HT3-IRES-mCherry (0.5 µl, 4.95 × 10^12 vg per ml) into the LHb (AP relative to bregma, −3.8 mm; ML, ±0.7 mm; DV, −5.25 mm, at a 10° angle) (n = 5) or underwent sham surgery (n = 9). Male Th-cre rats were anaesthetized with isoflurane (1.5–2%) and then placed onto a stereotaxic frame (Kopf) and injected with AAV1-Syn::FLEX-coca-GlyR-IRES-mCherry (0.5 µl, 6 × 10^12 vg per ml) into the VTA (AP, −6.0 mm relative to bregma; ML, ±1.9 mm; DV, −8.3 mm at a 10° angle) (n = 9) or underwent sham surgery (n = 6). Approximately 3 weeks later, the rats were anaesthetized, placed inside the PET scanner (Mediso NanoScan PET/CT), injected with [^18F]fallypride (~13 MBq) and then scanned using PET. [^18F]fallypride reaches steady-state by around 45 min after its injection and then remains stable for at least 150 min[60]. […] The PET data were reconstructed and corrected for dead-time and radioactive decay and then co-registered to an magnetic resonance imaging template as previously described[46],[60],[61]. Co-registered images were analysed using one-way ANOVA and the resulting parametric images were filtered for statistically significant (P < 0.01) clusters larger than 100 contiguous voxels. All statistical parametric mapping (SPM) analyses were performed using MATLAB R2016 (MathWorks) and SPM12 (University College London)[62]. Next, additional quantitative assessments of PET images were performed using the PMOD software environment (PMOD Technologies). We generated time–activity curves using the co-registered dynamic PET images and the significant voxel clusters defined by the voxel-wise SPM analysis as the volume of interest. The standardized uptake value (SUV) was calculated using the equation SUV = C/(dose/BW) where C is the tissue concentration of [^18F]fallypride (kBq cm^−3), dose is the administered dose (MBq) and BW (kg) is the animal’s body weight. Statistical analyses were performed using Prism 10 (GraphPad).

[3] = tested on: coca-GlyR in cultured hippocampal neurons; assay: Current-clamp of cultured hippocampal neurons expressing coca-GlyR; type: cell-based, rat
[4] = biological target: α7–5HT3 mutant chimeric channels (Homo sapiens, UniProt P36544, Q139V); assay: cell-based; type: cell-based, human α7 nAChR LBD, mouse 5HT3 IPD
[5] = biological target: α7–5HT3 mutant chimeric channels (Homo sapiens, UniProt P36544, S172L); assay: cell-based; type: cell-based, human α7 nAChR LBD, mouse 5HT3 IPD
[6] = tested on: coca-5HT3 in cultured hippocampal neurons; assay: Current-clamp of cultured hippocampal neurons expressing coca-5HT3; type: cell-based, rat; details: for DmV MEAN: coca-5HT3-IRES-EGFP, MEAN of cells

α7–5HT3 mutant chimeric channels (Homo sapiens, UniProt P36544, Q139V), sequence (P23979 242-489): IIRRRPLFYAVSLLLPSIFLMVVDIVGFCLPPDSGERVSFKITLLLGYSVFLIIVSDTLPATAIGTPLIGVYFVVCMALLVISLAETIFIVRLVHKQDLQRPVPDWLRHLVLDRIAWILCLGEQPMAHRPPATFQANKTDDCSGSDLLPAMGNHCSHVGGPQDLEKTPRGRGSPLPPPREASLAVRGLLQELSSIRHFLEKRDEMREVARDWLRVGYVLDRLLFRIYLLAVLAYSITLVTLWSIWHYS
α7–5HT3 mutant chimeric channels (Homo sapiens, UniProt P36544, Q139V), sequence (P36544 23-224 Q139V): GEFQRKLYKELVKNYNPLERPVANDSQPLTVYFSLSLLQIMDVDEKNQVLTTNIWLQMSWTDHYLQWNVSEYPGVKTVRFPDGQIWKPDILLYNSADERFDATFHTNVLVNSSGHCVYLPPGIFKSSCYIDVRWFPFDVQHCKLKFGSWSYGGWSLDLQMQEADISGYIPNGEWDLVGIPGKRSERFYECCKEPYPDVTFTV
α7–5HT3 mutant chimeric channels (Homo sapiens, UniProt P36544, S172L), sequence (P36544 23-224 S172L): as the sequence (P36544 23-224 Q139V) above, with V117Q, S150L counted along it
α7–5HT3 mutant chimeric channels (Homo sapiens, UniProt P36544, S172L), sequence (P23979 242-489, further chain): as the sequence (P23979 242-489) above

COC(=O)[C@H]1[C@@H](OC(=O)c2ccccc2)C[C@@H]2CC[C@H]1N2C [cocaine]
brain cocaine concentrations [1]: 2.5 to 20 µM
Cerebellum, Mean ([2]; Coca-5HT3, Time 60 min): 111.27
Striatum, Mean ([2]; Coca-5HT3, Time 60 min): 100.47
Cerebellum, Mean ([2]; Coca-5HT3, Time 63 min): 107.441
Striatum, Mean ([2]; Coca-5HT3, Time 63 min): 99.116
Cerebellum, Mean ([2]; Coca-5HT3, Time 66 min): 105.193
Striatum, Mean ([2]; Coca-5HT3, Time 66 min): 105.45
Cerebellum, Mean ([2]; Coca-5HT3, Time 69 min): 101.891
Striatum, Mean ([2]; Coca-5HT3, Time 69 min): 101.914
Cerebellum, Mean ([2]; Coca-5HT3, Time 72 min): 100.511
Striatum, Mean ([2]; Coca-5HT3, Time 72 min): 99.6684
Cerebellum, Mean ([2]; Coca-5HT3, Time 75 min): 97.2849
Striatum, Mean ([2]; Coca-5HT3, Time 75 min): 101.446
Cerebellum, Mean ([2]; Coca-5HT3, Time 78 min): 98.3773
Striatum, Mean ([2]; Coca-5HT3, Time 78 min): 97.1795
Cerebellum, Mean ([2]; Coca-5HT3, Time 81 min): 97.6857
Striatum, Mean ([2]; Coca-5HT3, Time 81 min): 99.4438
Cerebellum, Mean ([2]; Coca-5HT3, Time 84 min): 92.2137
Striatum, Mean ([2]; Coca-5HT3, Time 84 min): 99.5545
Cerebellum, Mean ([2]; Coca-5HT3, Time 87 min): 94.6333
Striatum, Mean ([2]; Coca-5HT3, Time 87 min): 100.176
Cerebellum, Mean ([2]; Coca-5HT3, Time 90 min): 93.4987
Striatum, Mean ([2]; Coca-5HT3, Time 90 min): 95.582
Cerebellum, Mean ([2]; Coca-5HT3, Time 92 min): 99.4012
Striatum, Mean ([2]; Coca-5HT3, Time 92 min): 95.8906
Cerebellum, Mean ([2]; Coca-5HT3, Time 94 min): 96.5331
Striatum, Mean ([2]; Coca-5HT3, Time 94 min): 92.7294
Cerebellum, Mean ([2]; Coca-5HT3, Time 96 min): 96.1496
Striatum, Mean ([2]; Coca-5HT3, Time 96 min): 97.7961
Cerebellum, Mean ([2]; Coca-5HT3, Time 98 min): 96.6515
Striatum, Mean ([2]; Coca-5HT3, Time 98 min): 98.5867
Cerebellum, Mean ([2]; Coca-5HT3, Time 100 min): 92.3336
Striatum, Mean ([2]; Coca-5HT3, Time 100 min): 97.1381
Cerebellum, Mean ([2]; Coca-5HT3, Time 104 min): 94.2368
Striatum, Mean ([2]; Coca-5HT3, Time 104 min): 97.3152
Cerebellum, Mean ([2]; Coca-5HT3, Time 106 min): 94.1983
Striatum, Mean ([2]; Coca-5HT3, Time 106 min): 95.2722
Cerebellum, Mean ([2]; Coca-5HT3, Time 110 min): 94.753
Striatum, Mean ([2]; Coca-5HT3, Time 110 min): 92.686
Cerebellum, Mean ([2]; Coca-5HT3, Time 112 min): 89.5645
Striatum, Mean ([2]; Coca-5HT3, Time 112 min): 94.0331
Cerebellum, Mean ([2]; Coca-5HT3, Time 116 min): 89.6884
Striatum, Mean ([2]; Coca-5HT3, Time 116 min): 93.7732
Cerebellum, Mean ([2]; Coca-5HT3, Time 118 min): 92.5349
Striatum, Mean ([2]; Coca-5HT3, Time 118 min): 94.2486
Cerebellum, Mean ([2]; Coca-5HT3, Time 120 min): 85.32
Striatum, Mean ([2]; Coca-5HT3, Time 120 min): 92.7482
Cerebellum, Mean ([2]; Control, Time 60 min): 103.946
Striatum, Mean ([2]; Control, Time 60 min): 104.425
Cerebellum, Mean ([2]; Control, Time 63 min): 103.573
Striatum, Mean ([2]; Control, Time 63 min): 105.053
Cerebellum, Mean ([2]; Control, Time 66 min): 103.781
Striatum, Mean ([2]; Control, Time 66 min): 101.615
Cerebellum, Mean ([2]; Control, Time 69 min): 101.695
Striatum, Mean ([2]; Control, Time 69 min): 102.645
Cerebellum, Mean ([2]; Control, Time 72 min): 100.786
Striatum, Mean ([2]; Control, Time 72 min): 99.1445
Cerebellum, Mean ([2]; Control, Time 75 min): 98.0752
Striatum, Mean ([2]; Control, Time 75 min): 97.188
Cerebellum, Mean ([2]; Control, Time 78 min): 100.961
Striatum, Mean ([2]; Control, Time 78 min): 99.7495
Cerebellum, Mean ([2]; Control, Time 81 min): 99.7275
Striatum, Mean ([2]; Control, Time 81 min): 97.1175
Cerebellum, Mean ([2]; Control, Time 84 min): 97.0682
Striatum, Mean ([2]; Control, Time 84 min): 97.2682
Cerebellum, Mean ([2]; Control, Time 87 min): 95.0129
Striatum, Mean ([2]; Control, Time 87 min): 98.2036
Cerebellum, Mean ([2]; Control, Time 90 min): 95.374
Striatum, Mean ([2]; Control, Time 90 min): 97.5908
Cerebellum, Mean ([2]; Control, Time 92 min): 99.2942
Striatum, Mean ([2]; Control, Time 92 min): 96.7723
Cerebellum, Mean ([2]; Control, Time 94 min): 98.6955
Striatum, Mean ([2]; Control, Time 94 min): 94.2988
Cerebellum, Mean ([2]; Control, Time 96 min): 97.5545
Striatum, Mean ([2]; Control, Time 96 min): 90.3041
Cerebellum, Mean ([2]; Control, Time 98 min): 95.1481
Striatum, Mean ([2]; Control, Time 98 min): 92.8392
Cerebellum, Mean ([2]; Control, Time 100 min): 95.7886
Striatum, Mean ([2]; Control, Time 100 min): 87.2087
Cerebellum, Mean ([2]; Control, Time 104 min): 93.5542
Striatum, Mean ([2]; Control, Time 104 min): 88.7106
Cerebellum, Mean ([2]; Control, Time 106 min): 95.3248
Striatum, Mean ([2]; Control, Time 106 min): 84.6758
Cerebellum, Mean ([2]; Control, Time 110 min): 94.4655
Striatum, Mean ([2]; Control, Time 110 min): 84.755
Cerebellum, Mean ([2]; Control, Time 112 min): 92.6418
Striatum, Mean ([2]; Control, Time 112 min): 85.4315
Cerebellum, Mean ([2]; Control, Time 116 min): 92.1838
Striatum, Mean ([2]; Control, Time 116 min): 85.918
Cerebellum, Mean ([2]; Control, Time 118 min): 92.0673
Striatum, Mean ([2]; Control, Time 118 min): 82.9007
Cerebellum, Mean ([2]; Control, Time 120 min): 91.4483
Striatum, Mean ([2]; Control, Time 120 min): 84.8826
[^18F]fallypride binding, cocaine versus saline ([2]; control rats, cocaine 3 mg per kg i.v., nucleus accumbens and ventromedial dorsal striatum voxels): significantly decreased
rheobase ([3]; coca-GlyR neurons, 10 uM, single cells): 200 pA
firing in response to current injection ([3]; neurons with coca-GlyR): inhibited
membrane input resistance ([3]; neurons with coca-GlyR): dose-dependent reduction
rheobase ([3]; neurons with coca-GlyR, cocaine 3 and 10 µM): increased
EC50 [4]: > 30 µM
EC50 ([4]; read-out: EC50 at a7 5HT3 Q139V, Avg, sheet 1d, Avg): > 30 µM
EC50 [5]: > 30 µM
current required to elicit an action potential (rheobase) ([6]; 3 µM cocaine): reduced
DmV MEAN ([6]; cocaine 0.1 uM): 0.3818 mV
DmV MEAN ([6]; cocaine 0.3 uM): 1.236 mV
DmV MEAN ([6]; cocaine 1 uM): 4.155 mV
DmV MEAN ([6]; cocaine 3 uM): 11.3545 mV
DmV MEAN ([6]; cocaine 10 uM): 12.55 mV
neuronal firing ([6]; cocaine 1–3 µM): increased
depolarization of neurons expressing coca-5HT3 ([6]; current-clamp): depolarized neurons in a dose-dependent manner
